The subject of test [1] is MV-4-11 human acute myeloid leukemia. The test can be described thus: MV-4-11 CCK-8 proliferation assay. The test is classed as cell-based. Conditions: Homo sapiens, MV4-11; MV-4-11 cells, 72 hr. How it is done:
(§1) The following cancer cell lines were employed: A549 human lung carcinoma (ATCC, #CCL-185); BT-474 human breast carcinoma (ATCC, #HTB-20); MDA-MB-231 human breast adenocarcinoma (ATCC, #CRM−HTB-26); MDA-MB-468 human breast adenocarcinoma (ATCC, #HTB-132); MV-4-11 human acute myeloid leukemia (ATCC, #CRL-9591); and U-87 MG human glioblastoma (ATCC, #HTB-14). Cell lines were cultured essentially according to ATCC recommendations.
(§2) 3-fold serial dilutions of each test compound were prepared ranging from 20 μM to 1.02 nM.
(§3) % Inhibition=100−(D−B)/(S−B)*100%. • S: Absorbance of cells treated with DMSO • D: Absorbance of compound-treated cells • B: Absorbance of medium with DMSO without cells
A general note: Tetrazolium assays rely on reduction of a dye to a coloured formazan, in cell work by metabolically active cells.

The test system of test [2] is U-87 MG human glioblastoma. Nature of the test: U87 MG CCK-8 proliferation assay. To be noted: Homo sapiens, U-87 MG cells, read-out: U87MG CCK-8. The format is cell-based. How it is done: as §1, §2, §3

pEC50: −log10 of the molar value. Like-named read-outs stand apart in the source and are kept apart here.

We go through 13 compounds from patent US20240124460A1, “METHODS AND COMPOSITIONS FOR TARGETED PROTEIN DEGRADATION” (Ranok Therapeutics (Hangzhou) Co. Ltd., priority 2020, published 2024).

As for `CCOc1cc(N2CCC(C(=O)N3CCN(Cc4ccc(-n5c(C(=O)NCCN6CCN(C)CC6)nnc5-c5cc(C(C)C)c(O)cc5O)cc4)CC3)CC2)ccc1Nc1ncc2c(n1)N(C)c1ccccc1C(=O)N2C` [Compound 167, 5-(2,4-dihydroxy-5-isopropylphenyl)-4-(4-((4-(1-(4-((5,11-dimethyl-6-oxo-6,11-dihydro-5H-benzo[e]pyrimido[5,4-b][1,4]diazepin-2-yl)amino)-3-ethoxyphenyl)piperidine-4-carbonyl)piperazin-1-yl)methyl)phenyl)-N-(2-(4-methylpiperazin-1-yl)ethyl)-4H-1,2,4-triazole-3-carboxamide], the pEC50 was > 7.00 in test [1] and > 7.00 in test [2] (U-87 MG, 72 h).

Regarding `CCOc1cc(N2CCC(C(=O)NCc3ccc(CN(C)Cc4ccc(-n5c(O)nnc5-c5cc(C(C)C)c(O)cc5O)cc4)cc3)CC2)ccc1Nc1ncc2c(n1)N(S(C)(=O)=O)c1ccccc1C(=O)N2C` [Compound 170, N-(4-(((4-(3-(2,4-dihydroxy-5-isopropylphenyl)-5-hydroxy-4H-1,2,4-triazol-4-yl)benzyl)(methyl)amino)methyl)benzyl)-1-(3-ethoxy-4-((5-methyl-11-(methylsulfonyl)-6-oxo-6,11-dihydro-5H-benzo[e]pyrimido[5,4-b][1,4]diazepin-2-yl)amino)phenyl)piperidine-4-carboxamide], the pEC50 in test [1] was > 7.00; in test [2] (U-87 MG, 72 h), > 7.00.

With `CCNC(=O)c1nnc(-c2cc(CC)c(O)cc2OC)n1-c1ccc(CN2CCN(CC3CCN(C(=O)C4CCN(c5ccc(Nc6ncc7c(n6)N(S(C)(=O)=O)c6ccccc6C(=O)N7C)c(OCC)c5)CC4)CC3)CC2)cc1` [Compound 171, 4-(4-((4-((1-(1-(3-ethoxy-4-((5-methyl-11-(methylsulfonyl)-6-oxo-6,11-dihydro-5H-benzo[e]pyrimido[5,4-b][1,4]diazepin-2-yl)amino)phenyl)piperidine-4-carbonyl)piperidin-4-yl)methyl)piperazin-1-yl)methyl)phenyl)-N-ethyl-5-(5-ethyl-4-hydroxy-2-methoxyphenyl)-4H-1,2,4-triazole-3-carboxamide], the pEC50 in test [1] was < 6.00; in test [2] (U-87 MG, 72 h), < 6.00.

As for `CCOc1cc(N2CCC(C(=O)N3CCN(Cc4ccc(-n5c(C(=O)NCCN6CCN(S(C)(=O)=O)CC6)nnc5-c5cc(C(C)C)c(O)cc5O)cc4)CC3)CC2)ccc1Nc1ncc2c(n1)N(C)c1ccccc1C(=O)N2C` [Compound 172, 5-(2,4-dihydroxy-5-isopropylphenyl)-4-(4-((4-(1-(4-((5,11-dimethyl-6-oxo-6,11-dihydro-5H-benzo[e]pyrimido[5,4-b][1,4]diazepin-2-yl)amino)-3-ethoxyphenyl)piperidine-4-carbonyl)piperazin-1-yl)methyl)phenyl)-N-(2-(4-(methylsulfonyl)piperazin-1-yl)ethyl)-4H-1,2,4-triazole-3-carboxamide], the pEC50 in test [1] was > 7.00; in test [2] (U-87 MG, 72 h) it was > 7.00.

As for `CCOc1cc(N2CCC(C(=O)N3CCN(Cc4ccc(-n5c(C(=O)NCC(F)(F)C(F)(F)F)nnc5-c5cc(C(C)C)c(O)cc5O)cc4)CC3)CC2)ccc1Nc1ncc2c(n1)N(C)c1ccccc1C(=O)N2C` [Compound 173, 5-(2,4-dihydroxy-5-isopropylphenyl)-4-(4-((4-(1-(4-((5,11-dimethyl-6-oxo-6,11-dihydro-5H-benzo[e]pyrimido[5,4-b][1,4]diazepin-2-yl)amino)-3-ethoxyphenyl)piperidine-4-carbonyl)piperazin-1-yl)methyl)phenyl)-N-(2,2,3,3,3-pentafluoropropyl)-4H-1,2,4-triazole-3-carboxamide], the pEC50 is > 7.00 in test [1] and > 7.00 in test [2] (U-87 MG, 72 h).

Consider `CCOc1cc(N2CCC(C(=O)N3CCN(Cc4ccc(-n5c(C(=O)NCCN6CCN(S(C)(=O)=O)CC6)nnc5-c5cc(C(C)C)c(O)cc5O)cc4)CC3)CC2)ccc1Nc1ncc2c(n1)N(S(C)(=O)=O)c1ccccc1C(=O)N2C` [Compound 174, 5-(2,4-dihydroxy-5-isopropylphenyl)-4-(4-((4-(1-(3-ethoxy-4-((5-methyl-11-(methylsulfonyl)-6-oxo-6,11-dihydro-5H-benzo[e]pyrimido[5,4-b][1,4]diazepin-2-yl)amino)phenyl)piperidine-4-carbonyl)piperazin-1-yl)methyl)phenyl)-N-(2-(4-(methylsulfonyl)piperazin-1-yl)ethyl)-4H-1,2,4-triazole-3-carboxamide], for which the pEC50 in test [1] was > 7.00; in test [2] (U-87 MG, 72 h), > 7.00.

Regarding `CCOc1cc(N2CCC(C(=O)N3CCN(Cc4ccc(-n5c(C(=O)NCC(F)(F)C(F)(F)F)nnc5-c5cc(C(C)C)c(O)cc5O)cc4)CC3)CC2)ccc1Nc1ncc2c(n1)N(S(C)(=O)=O)c1ccccc1C(=O)N2C` [Compound 175, 5-(2,4-dihydroxy-5-isopropylphenyl)-4-(4-((4-(1-(3-ethoxy-4-((5-methyl-11-(methylsulfonyl)-6-oxo-6,11-dihydro-5H-benzo[e]pyrimido[5,4-b][1,4]diazepin-2-yl)amino)phenyl)piperidine-4-carbonyl)piperazin-1-yl)methyl)phenyl)-N-(2,2,3,3,3-pentafluoropropyl)-4H-1,2,4-triazole-3-carboxamide], the pEC50 in test [1] is > 7.00; in test [2] (U-87 MG, 72 h), > 7.00.

`CCOc1cc(N2CCC(CN3CCN(Cc4ccc(-n5c(C(=O)NCC(F)(F)F)nnc5-c5cc(C(C)C)c(O)cc5O)cc4)CC3)CC2)ccc1Nc1ncc2c(n1)N(S(C)(=O)=O)c1ccccc1C(=O)N2C` [Compound 178, 5-(2,4-dihydroxy-5-isopropylphenyl)-4-(4-((4-((1-(3-ethoxy-4-((5-methyl-11-(methylsulfonyl)-6-oxo-6,11-dihydro-5H-benzo[e]pyrimido[5,4-b][1,4]diazepin-2-yl)amino)phenyl)piperidin-4-yl)methyl)piperazin-1-yl)methyl)phenyl)-N-(2,2,2-trifluoroethyl)-4H-1,2,4-triazole-3-carboxamide]: the pEC50 in test [1] was > 7.00; in test [2] (U-87 MG, 72 h), > 7.00.

Turning to `CCOc1cc(N2CCC(CN3CCC(CN4CCN(Cc5ccc(-n6c(C(=O)NC(C)C(F)(F)F)nnc6-c6cc(CC)c(O)cc6O)cc5)CC4)CC3)CC2)ccc1Nc1ncc2c(n1)N(S(C)(=O)=O)c1ccccc1C(=O)N2C` (centres unmarked) [Compound 179, 4-(4-((4-((1-((1-(3-ethoxy-4-((5-methyl-11-(methylsulfonyl)-6-oxo-6,11-dihydro-5H-benzo[e]pyrimido[5,4-b][1,4]diazepin-2-yl)amino)phenyl)piperidin-4-yl)methyl)piperidin-4-yl)methyl)piperazin-1-yl)methyl)phenyl)-5-(5-ethyl-2,4-dihydroxyphenyl)-N-(1,1,1-trifluoropropan-2-yl)-4H-1,2,4-triazole-3-carboxamide 2,2,2-trifluoroacetate], the pEC50 is > 7.00 in test [1] and > 7.00 in test [2] (U-87 MG, 72 h).

`CCOc1cc(N2CCC(C(=O)N3CCN(Cc4ccc(-n5c(O)nnc5-c5cc(C(C)C)c(OP(=O)(O)O)cc5O)cc4)CC3)CC2)ccc1Nc1ncc2c(n1)N(C)c1ccccc1C(=O)N2C` [Compound 180, 4-(4-(4-((4-(1-(4-((5,11-dimethyl-6-oxo-6,11-dihydro-5H-benzo[e]pyrimido[5,4-b][1,4]diazepin-2-yl)amino)-3-ethoxyphenyl)piperidine-4-carbonyl)piperazin-1-yl)methyl)phenyl)-5-hydroxy-4H-1,2,4-triazol-3-yl)-5-hydroxy-2-isopropylphenyl dihydrogen phosphate]: the pEC50 in test [1] and in test [2] (72 hr) was > 7.00 throughout.

In the case of `CCOc1cc(N2CCC(CN3CCC(CN4CCN(Cc5ccc(-n6c(C(=O)NC(C)C(F)(F)F)nnc6-c6cc(C(C)C)c(O)cc6O)cc5)CC4)CC3)CC2)ccc1Nc1ncc2c(n1)N(S(C)(=O)=O)c1ccccc1C(=O)N2C` (centres unmarked) [Compound 181, 5-(2,4-dihydroxy-5-isopropylphenyl)-4-(4-((4-((1-((1-(3-ethoxy-4-((5-methyl-11-(methylsulfonyl)-6-oxo-6,11-dihydro-5H-benzo[e]pyrimido[5,4-b][1,4]diazepin-2-yl)amino)phenyl)piperidin-4-yl)methyl)piperidin-4-yl)methyl)piperazin-1-yl)methyl)phenyl)-N-(1,1,1-trifluoropropan-2-yl)-4H-1,2,4-triazole-3-carboxamide], the pEC50 in test [1] is > 7.00; in test [2] (U-87 MG, 72 h) it was 6.00 to 7.00.

On to `CCOc1cc(N2CCC(CN3CC4(CCN(Cc5ccc(-n6c(O)nnc6-c6cc(C(C)C)c(O)cc6O)cc5)CC4)C3)CC2)ccc1Nc1ncc2c(n1)N(S(C)(=O)=O)c1ccccc1C(=O)N2C` [Compound 183, 2-((4-(4-((7-(4-(3-(2,4-dihydroxy-5-isopropylphenyl)-5-hydroxy-4H-1,2,4-triazol-4-yl)benzyl)-2,7-diazaspiro[3.5]nonan-2-yl)methyl)piperidin-1-yl)-2-ethoxyphenyl)amino)-5-methyl-11-(methylsulfonyl)-5,11-dihydro-6H-benzo[e]pyrimido[5,4-b][1,4]diazepin-6-one], for which the pEC50 is > 7.00 in test [1] and 6.00 to 7.00 in test [2] (U-87 MG, 72 h).

`CCOc1cc(N2CCC(CN3CCC4(CC3)CN(Cc3ccc(-n5c(O)nnc5-c5cc(C(C)C)c(O)cc5O)cc3)C4)CC2)ccc1Nc1ncc2c(n1)N(S(C)(=O)=O)c1ccccc1C(=O)N2C` [Compound 184, 2-((4-(4-((2-(4-(3-(2,4-dihydroxy-5-isopropylphenyl)-5-hydroxy-4H-1,2,4-triazol-4-yl)benzyl)-2,7-diazaspiro[3.5]nonan-7-yl)methyl)piperidin-1-yl)-2-ethoxyphenyl)amino)-5-methyl-11-(methylsulfonyl)-5,11-dihydro-6H-benzo[e]pyrimido[5,4-b][1,4]diazepin-6-one]: the pEC50 is > 7.00 in test [1] and 6.00 to 7.00 in test [2] (U-87 MG, 72 h).
